Data as given in US7332617B2, “Process for the preparation of docetaxel trihydrate” (Shanghai Desano Chemical Pharmaceutical Co., Ltd., priority 2003, dated 2008).

Columns and labels:
[1] = according to Chinese patent 95193984.X; cited from earlier work
[2] = stability test at 40° C., relative humidity 75%, 12 months; type: physicochemical; details: relative humidity of 75%
Method: The experiment conditions for testing the stability are: under temperature of 40° C., at relative humidity of 75%, 12 months. Within this period, the trihydrate compound remain no change.

[3] = stability in high temperature; type: physicochemical
Method: 2. Lower operation temperature (below 40° C.). As Docetaxel's stability is bad in high temperature, this will help to avoid any purity drop of Docetaxel in purification process.

[4] = system: transferring breast cancer; details: cited from earlier work
[5] = exposure in light (purity); type: physicochemical; details: exposed in light for 10 hours
Source text: It is sensitive to light in some way. Shortening of the filtration time decreased the exposure time, thus the reduction of purity was avoided.

stability [2] | stability in high temperature [3] | purity on exposure in light [5] | SMILES | stability compared with anhydrous compound [1] | CR (Complete Resultful) ([4]; one research report) [%] | total chemotherapy efficiency of single Docetaxel ([4]; phase II clinical trial, patients who have received chemotherapy, generally 100 mgs/m^2, infusion, once per 3 weeks) [%]
no change | – | – | CC(=O)O[C@@]12CO[C@@H]1C[C@H](O)[C@@]1(C)C(=O)[C@H](O)C3=C(C)[C@@H](OC(=O)[C@H](O)[C@@H](NC(=O)OC(C)(C)C)c4ccccc4)C[C@@](O)([C@@H](OC(=O)c4ccccc4)[C@H]21)C3(C)C [Docetaxel trihydrate, (2′R,3′S)-N-carboxy-3-phenylisoserine, N-tert-butyl ester, 13-ester with 5β,20-epoxy-1β,2α,4α,7β,10β,13α-hexahydroxytax-11-en-9-one 4-acetate-2-benzoate, trihydrate] | more stable than its anhydrous compound | – | –
– | bad | purity dropped | CC(=O)O[C@@]12CO[C@@H]1C[C@H](O)[C@@]1(C)C(=O)[C@H](O)C3=C(C)[C@@H](OC(=O)[C@H](O)[C@@H](NC(=O)OC(C)(C)C)c4ccccc4)C[C@@](O)([C@@H](OC(=O)c4ccccc4)[C@H]21)C3(C)C [Docetaxel] | – | 4 | 47
